The values that follow come from patent publication US10513503B2, “Use of 3-deoxyanthocyanidins for treating occular diseases” (BIOPHYTIS, priority 2015, dated 2019).

Assay [1] concerns primary cultures of retinal pigment epithelium (RPE) of adult pigs. Description: In vitro assay of the photoprotective activity: phototoxicity induced by A2E and blue light, cell survival. The assay is classed as cell-based, pig. The note with it: for viability at 20 µM / viability at 5 µM: Sus scrofa; for viability at 20 µM / viability at 5 µM / Cell survival: A2E 30 μM, blue light 470 nm 50 min, survival after 24 h, living cells vs control wells without A2E x100, A2E controls without molecule 39.7±3.7. On the procedure:
A cell model of phototoxicity induced by the association of a treatment by the A2E and of an illumination by blue light on primary cultures of RPE, wherein cell survival was measured, was used. This model uses primary cultures of retinal pigment epithelium of adult pigs.
This model makes it possible in particular to carry out the screening of molecules aimed at the discovery of new candidates for a treatment of the dry form of AMD. This model is closer to the “physiological” situation than the cell lines commonly used in literature, because the cells used contain protective substances provided by the diet of the animal and are therefore not in a situation of “deficiency”, and their disturbance is caused by the adding of A2E into the culture medium.
The cell cultivated in 96-well plates were treated for 48 hours with the compounds to be tested (in a 5 mM solution in the DMSO) in such a way as to obtain final concentrations of 5 or 20 μM), of which the last 19 hours in the presence of A2E (final concentration 30 μM). […] Cell survival is measured after 24 hours.
Cell survival and death are detected 24 hours after the induction of the phototoxicity by colouration of the cells with Hoechst (a nuclear marker) and with ethidium (a marker of the nuclei of dead cells). Images of each well are acquired on a fluorescent microscope equipped with a motorised stage controlled by the Metamorph software, and cell survival is quantified by a dedicated quantification program. The experiments are conducted on 96-well microplates in quadruplicate and each experiment is reproduced at least four times.
The results are expressed in the form of a ratio representing the number of living cells in the wells treated by the molecules to be tested divided by the number of living cells in the control wells (treated with the dilution medium without A2E) and multiplied by 100.

The test system of assay [2] is genetically modified mouse model (ABCA4 and Rdh8 inactivated). Description: In vivo assay of the photoprotective activity in mice (blue light exposure after intravitreal injection). The note with it: unilateral intravitreal injection, 100-130 μM in the vitreous, blue light 4000 lux 1 h. The text has this: A genetically modified mouse model developed by Maeda et al. (Invest Ophthalmol. Vis. Sci., 2009, 50, 4917-4925) was used to test the photoprotective activity of the compounds of the invention.
In this mouse model, two genes involved in the visual pigment cycle (ABCA4 and Rdh8, see FIG. 1) are inactivated, which results in an early accumulation of A2E in the eyes. This animal model is therefore representative of the human pathology.
Mice aged 7 weeks were used to carry out the unilateral intravitreal injections of solubilised diosmetinidin ([…]) in DMSO and diluted in PBS (1.2:100), in order to obtain a concentration in the vitreous of 100-130 μM. DMSO diluted in the PBS was injected into the control animals. After 24 h in the dark, the mice were subjected to an exposure to blue light (4000 lux, 1 h).

The test system of assay [3] is RPE cells. The note with it: literature, in words; cited from earlier work.
Assay [4] concerns RPE cells. The note with it: literature, in words; cited from earlier work. The source holds these as a separate data set.

For `COc1ccc(-c2ccc3ccc(OC)cc3[o+]2)c(O)c1`, the viability at 20 µM in assay [1] (20 μM compound for 48 h) is 39.2 ± 7.4%.

In turn, `COc1ccc2ccc(-c3ccc(OC)c(OC)c3)[o+]c2c1` showed a viability at 20 µM in assay [1] (20 μM compound for 48 h) of 48.7 ± 5.5%.

On to `COc1ccc(-c2ccc3ccc(O)cc3[o+]2)cc1OC`, for which the viability at 20 µM in assay [1] (20 μM compound for 48 h) worked out at 46.1 ± 4.7%.

Consider `COc1ccc(-c2ccc3ccc(O)cc3[o+]2)c(O)c1` [Compound 1, 2′,7-dihydroxy-4′-methoxy-flavylium chloride], for which the viability at 20 µM in assay [1] (20 μM compound for 48 h) was 89.9 ± 4.9%.

As to `COc1ccc(-c2ccc3ccc(O)cc3[o+]2)c(O)c1O` [Compound 2, 2′,3′,7-trihydroxy-4′-methoxy-flavylium chloride], the viability at 20 µM in assay [1] (20 μM compound for 48 h) stood at 86.7 ± 2.3%.

In turn, `COc1ccc(-c2ccc3ccc(O)cc3[o+]2)cc1O` [Compound 3, 3′,7-dihydroxy-4′-methoxy-flavylium chloride] registered a viability at 20 µM in assay [1] (20 μM compound for 48 h) of 77 ± 2.7%.

Molecule `Oc1ccc(-c2ccc3c(O)cc(O)cc3[o+]2)cc1` [Compound 4, 4′,5,7-trihydroxy-flavylium chloride (apigeninidin)] had a viability at 5 µM in assay [1] (5 μM compound for 48 h) of 71 ± 3.6%. This molecule also displayed a viability at 20 µM in assay [1] (20 μM compound for 48 h) of 89.5 ± 3.5%.

Take `COc1ccc(-c2ccc3c(O)cc(O)cc3[o+]2)cc1O.[Cl-]` [Compound 5, 3′,5,7-trihydroxy-4′-methoxy-flavylium chloride (diosmetinidin)]: the viability at 5 µM in assay [1] (5 μM compound for 48 h) was found to be 84.5 ± 1.4%. The same molecule returned a viability at 20 µM in assay [1] (20 μM compound for 48 h) of 90.8 ± 3.6%. Besides, the “electroretinograms (wave A, wave B electrical activity)” value in assay [2] (7 days later) was “protective effect”. Moreover, in assay [2] (FIG. 4), the “survival of the photoreceptors (number of layers of photoreceptors)” value is given as “good survival”.

The molecule `Oc1cc(O)c2ccc(-c3cc(O)c(O)c(O)c3)[o+]c2c1` [Compound 6, 3′,4′,5′,5,7-pentadroxy-flavylium chloride (tricetinidin)] yielded a viability at 5 µM in assay [1] (5 μM compound for 48 h) of 74.9 ± 4.2%. Besides, in assay [1] (20 μM compound for 48 h), the viability at 20 µM came to 99.3 ± 3.3%.

As to `Oc1cc(O)c2ccc(-c3ccc(O)c(O)c3)[o+]c2c1` [Compound 7, 3′,4′,5,7-tetrahydroxy-flavylium chloride (luteolinidin)], in assay [1] (5 μM compound for 48 h), the viability at 5 µM was determined as 72 ± 4.4%. In assay [1] (20 μM compound for 48 h), this molecule displayed a viability at 20 µM of 93.6 ± 6.7%.

For `Oc1cc(O)c2cc(O)c(-c3ccc(O)c(O)c3)[o+]c2c1` [Cyanidin, cyanidin], the Cell survival is recorded as 56.4 ± 8.8% in assay [1] (5 μM compound for 48 h) and 92.9 ± 1.9% in assay [1] (20 μM compound for 48 h). Besides, in assay [1] (at 20 μM, in words), the photoprotector effect result is “substantial photoprotector effect”. In addition, the “effectiveness of the photoprotection” value in assay [1] (at a lower concentration (5 μM), in words) is reported as “substantially reduced”. In the assay on RPE cells [3], the “photoprotective effect on the RPE cells” value is on record as “photoprotective effect”. Besides, the “effectiveness for cell survival of the RPE cells” value (“effectiveness for cell survival” below) with RPE cells [4] is “ineffectiveness”.

With `Oc1cc(O)c2cc(O)c(-c3cc(O)c(O)c(O)c3)[o+]c2c1` [Delphinidin, delphinidin], the Cell survival in assay [1] (5 μM compound for 48 h) worked out at 40.5 ± 6.2%; in assay [1] (20 μM compound for 48 h), 57.8 ± 5.6%. Besides, the “photoprotective effect on the RPE cells” value in the assay on RPE cells [3] is “photoprotective effect”. The “effectiveness for cell survival” value with RPE cells [4] was “ineffectiveness”.

The molecule `Oc1ccc2cc(O)c(-c3ccc(O)c(O)c3)[o+]c2c1` [Fisetinidin, fisetinidin] returned a Cell survival in assay [1] (20 μM compound for 48 h) of 39.3 ± 3.2%.

The molecule `Oc1ccc(-c2ccc3c(O)cc(O)c(O)c3[o+]2)cc1O` [Gossypetinidin, gossypetinidin] came in with a Cell survival in assay [1] (20 μM compound for 48 h) of 36.5 ± 14.4%.

For the molecule `COc1cc(-c2[o+]c3cc(O)cc(O)c3cc2O)cc(OC)c1O.[Cl-]` [Malvidin, malvidin], the Cell survival in assay [1] (20 μM compound for 48 h) is 51.5 ± 6.9%. For the same molecule, in the assay on RPE cells [3], the “photoprotective effect on the RPE cells” value is reported as “contrary”. Further, the “effectiveness for cell survival” value in the assay on RPE cells [4] is recorded as “ineffectiveness”.

In assay [1] (20 μM compound for 48 h), `COc1cc(-c2[o+]c3cc(O)cc(O)c3cc2O)cc(O)c1O` [Petunidin, petunidin] registered a Cell survival of 67.2 ± 6.9%. In the assay on RPE cells [4], the “effectiveness for cell survival” value is listed as “ineffectiveness”.

In assay [1] (20 μM compound for 48 h), `Oc1ccc(-c2[o+]c3cc(O)c(O)c(O)c3cc2O)cc1O` [Quercetagetinidin, quercetagetinidin] came in with a Cell survival of 54.3 ± 6.6%.

As to guibourtinidin, the Cell survival in assay [1] (20 μM compound for 48 h) is 42.8 ± 6.9%.
